This passage reports IC50 results from ChEMBL document CHEMBL1131488, “Dihydropyrancarboxamides related to zanamivir: a new series of inhibitors of influenza virus sialidases. 1. Discovery, synthesis, biological activity, and structure-activity relationships of 4-guanidino- and 4-amino-4H-pyran-6-carboxamides” (J Med Chem, 1998).

Test [1] has as its target Neuraminidase (Influenza A virus (A/Puerto Rico/8/1934(H1N1)), UniProt P03468). Put plainly: Inhibition of influenza A virus sialidase activity.
The target in another test is Neuraminidase (Influenza B virus (strain B/Lee/1940), UniProt P03474). The test is described as follows: Inhibition of influenza B virus sialidase activity.
Chain of Neuraminidase (P03474 whole entry): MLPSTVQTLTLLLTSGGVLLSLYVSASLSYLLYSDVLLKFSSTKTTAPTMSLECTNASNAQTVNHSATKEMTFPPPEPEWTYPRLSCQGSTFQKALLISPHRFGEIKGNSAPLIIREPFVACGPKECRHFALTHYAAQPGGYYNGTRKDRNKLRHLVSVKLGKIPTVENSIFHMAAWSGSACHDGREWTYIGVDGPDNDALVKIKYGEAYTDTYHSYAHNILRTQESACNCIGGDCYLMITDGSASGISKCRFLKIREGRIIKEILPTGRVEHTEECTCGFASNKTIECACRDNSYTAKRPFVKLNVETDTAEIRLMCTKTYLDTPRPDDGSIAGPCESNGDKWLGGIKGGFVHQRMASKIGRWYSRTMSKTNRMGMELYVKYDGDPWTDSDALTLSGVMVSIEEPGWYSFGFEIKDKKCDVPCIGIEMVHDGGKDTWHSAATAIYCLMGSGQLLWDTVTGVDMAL

Chain of Neuraminidase (Influenza A virus (A/Puerto Rico/8/1934(H1N1)), UniProt P03468) (P03468 whole entry): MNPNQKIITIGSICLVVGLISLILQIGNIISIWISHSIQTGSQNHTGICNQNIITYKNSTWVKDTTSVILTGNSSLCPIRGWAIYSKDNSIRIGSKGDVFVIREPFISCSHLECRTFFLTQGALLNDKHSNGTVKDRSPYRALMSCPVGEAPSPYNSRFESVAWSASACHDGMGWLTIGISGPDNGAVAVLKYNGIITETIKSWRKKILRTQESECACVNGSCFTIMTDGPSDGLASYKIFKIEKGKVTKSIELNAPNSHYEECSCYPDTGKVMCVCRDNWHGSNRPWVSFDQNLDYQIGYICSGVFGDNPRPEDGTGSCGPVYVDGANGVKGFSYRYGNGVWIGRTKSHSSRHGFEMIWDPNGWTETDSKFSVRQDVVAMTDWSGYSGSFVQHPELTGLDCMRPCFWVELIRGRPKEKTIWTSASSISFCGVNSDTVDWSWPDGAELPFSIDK

The IC50 is the concentration that gives 50% inhibition. Lower therefore signals higher potency. On to `CCCN(CCc1ccccc1OC)C(=O)[C@@H]1OC(C(=O)O)=C[C@H](N)[C@H]1NC(C)=O`, for which the figures for the IC50 (in test [1]; at Neuraminidase) were 0.009 µM and 12 µM, respectively.
For the compound `CCC1CCC(CC)N1C(=O)[C@@H]1OC(C(=O)O)=C[C@H](N)[C@H]1NC(C)=O` (stereo not given in full), the IC50 is 0.29 µM in test [1] and 26 µM on Neuraminidase.
On to `CC(=O)N[C@@H]1[C@@H](N)C=C(C(=O)O)O[C@H]1C(=O)N(CCc1ccccc1)C(C)C`, for which the 50% inhibitory concentration (IC50) in test [1] was determined as 0.008 µM; against Neuraminidase, 7.9 µM.
`CCCN(CCc1ccc(C(C)C)cc1)C(=O)[C@@H]1OC(C(=O)O)=C[C@H](N)[C@H]1NC(C)=O`: the results for the half-maximal inhibitory concentration (IC50) (in test [1]; at Neuraminidase) were 0.012 µM and 6.2 µM, respectively.
In the case of `CC(=O)N[C@@H]1[C@@H](N)C=C(C(=O)O)O[C@H]1C(=O)N(CCO)CCc1ccccc1`, the values for the half-maximal inhibitory concentration (IC50) (in test [1]; against Neuraminidase) were 0.012 µM and 100 µM, respectively.
`CCCN(CC)C(=O)[C@@H]1OC(C(=O)O)=C[C@H](N)[C@H]1NC(C)=O` gave a half-inhibitory concentration (IC50) against Neuraminidase of 0.41 µM.
On to `CCCN(CCCc1ccccc1)C(=O)[C@@H]1OC(C(=O)O)=C[C@H](N)[C@H]1NC(C)=O`, for which the IC50 in test [1] was 0.018 µM; against Neuraminidase, 46 µM.
On the same counts, the results for `CCCN(CCc1ccc(OC)cc1)C(=O)[C@@H]1OC(C(=O)O)=C[C@H](N)[C@H]1NC(C)=O` are 0.008 µM and 3.3 µM.
On to `CC(=O)N[C@@H]1[C@@H](N)C=C(C(=O)O)O[C@H]1C(=O)N(CCc1ccccc1)C1CC1`, for which the concentration for half-maximal inhibition (IC50) in test [1] was determined as 0.046 µM; at Neuraminidase, 36 µM.
For `CCCN(Cc1ccccc1)C(=O)[C@@H]1OC(C(=O)O)=C[C@H](N)[C@H]1NC(C)=O`, the half-inhibitory concentration (IC50) in test [1] is 4.2 µM; on Neuraminidase it was 180 µM.
In test [1], `CCCN(CCc1ccc(-c2ccccc2)cc1)C(=O)[C@@H]1OC(C(=O)O)=C[C@H](N)[C@H]1NC(C)=O` came in with a half-maximal inhibitory concentration (IC50) of 0.002 µM.
For `CCCN(CCc1cccc(-c2ccccc2)c1)C(=O)[C@@H]1OC(C(=O)O)=C[C@H](N)[C@H]1NC(C)=O`, the IC50 in test [1] came to 0.002 µM; on Neuraminidase it was 4.5 µM.
As to `CCCN(CCc1ccc(O)cc1)C(=O)[C@@H]1OC(C(=O)O)=C[C@H](N)[C@H]1NC(C)=O`, the IC50 in test [1] was determined as 0.009 µM; against Neuraminidase, 1.9 µM.
On to `CC(=O)N[C@@H]1[C@@H](N)C=C(C(=O)O)O[C@H]1C(=O)N(CCc1ccccc1)CCN(C)C`, for which the IC50 (in test [1]; against Neuraminidase) was > 300 µM each time.
Regarding `CCCN(CCc1ccc(Cl)cc1Cl)C(=O)[C@@H]1OC(C(=O)O)=C[C@H](N)[C@H]1NC(C)=O`, the half-inhibitory concentration (IC50) in test [1] was determined as 0.006 µM; on Neuraminidase it was 16 µM.
On to `CC(=O)N[C@@H]1[C@@H](N)C=C(C(=O)O)O[C@H]1C(=O)N(CCc1ccccc1)CC(=O)O`, for which the figures for the IC50 (in test [1]; at Neuraminidase) were 130 µM and 75 µM, respectively.
`CCCN(CCc1cccc(OC)c1)C(=O)[C@@H]1OC(C(=O)O)=C[C@H](N)[C@H]1NC(C)=O`: the concentration for half-maximal inhibition (IC50) in test [1] is 0.005 µM; against Neuraminidase it was 3.2 µM.
With `CC(=O)N[C@@H]1[C@@H](N)C=C(C(=O)O)O[C@H]1C(=O)N(CCCO)CCc1ccccc1`, the 50% inhibitory concentration (IC50) is 3 µM in test [1] and > 360 µM against Neuraminidase.
In test [1], `CC(=O)N[C@@H]1[C@@H](N)C=C(C(=O)O)O[C@H]1C(=O)N(CCc1ccccc1)CC(C)C` had an IC50 of 0.014 µM.
Take `CCCN(CCc1cccc(O)c1)C(=O)[C@@H]1OC(C(=O)O)=C[C@H](N)[C@H]1NC(C)=O`: the concentration for half-maximal inhibition (IC50) in test [1] was determined as 0.003 µM; against Neuraminidase it was 2.3 µM.
For `CC(=O)N[C@@H]1[C@@H](N)C=C(C(=O)O)O[C@H]1C(=O)N(CCN)CCc1ccccc1`, the values for the IC50 (in test [1]; against Neuraminidase) were 47 µM and 260 µM, respectively.
For the compound `CCCN(CCc1ccc(Cc2ccccc2)cc1)C(=O)[C@@H]1OC(C(=O)O)=C[C@H](N)[C@H]1NC(C)=O`, the half-inhibitory concentration (IC50) in test [1] was 0.27 µM; against Neuraminidase, 5.2 µM.
On the same counts, the results for `CC(=O)N[C@@H]1[C@@H](N)C=C(C(=O)O)O[C@H]1C(=O)N1CCCC1C` (stereo not given in full) are 0.31 µM and 210 µM.
Take `CC(=O)N[C@@H]1[C@@H](N)C=C(C(=O)O)O[C@H]1C(=O)N(CCc1ccccc1)CC(N)=O`: the half-maximal inhibitory concentration (IC50) in test [1] was found to be 19 µM; against Neuraminidase, 31 µM.
